The first test deals with T1, PCSK9 and the LDL receptor (Homo sapiens, UniProt Q8NBP7).
T1 construct: purchased CircuLex CY-8150
T1 sequence (Q8NBP7 153-692): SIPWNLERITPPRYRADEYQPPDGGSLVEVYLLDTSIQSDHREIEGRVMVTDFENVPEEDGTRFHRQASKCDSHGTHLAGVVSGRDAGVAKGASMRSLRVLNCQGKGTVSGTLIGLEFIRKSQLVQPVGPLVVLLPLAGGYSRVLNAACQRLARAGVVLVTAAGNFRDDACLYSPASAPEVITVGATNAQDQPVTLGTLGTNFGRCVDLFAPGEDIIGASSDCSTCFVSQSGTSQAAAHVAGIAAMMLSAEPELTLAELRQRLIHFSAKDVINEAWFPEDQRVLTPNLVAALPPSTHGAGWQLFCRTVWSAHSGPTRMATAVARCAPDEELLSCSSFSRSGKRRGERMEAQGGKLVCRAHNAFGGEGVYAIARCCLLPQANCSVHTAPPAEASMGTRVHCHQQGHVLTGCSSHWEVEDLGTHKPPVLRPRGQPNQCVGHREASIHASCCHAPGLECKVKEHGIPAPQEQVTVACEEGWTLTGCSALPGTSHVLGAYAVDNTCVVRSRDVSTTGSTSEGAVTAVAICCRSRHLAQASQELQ
T1 sequence (Q8NBP7 31-152 partner limits assumed): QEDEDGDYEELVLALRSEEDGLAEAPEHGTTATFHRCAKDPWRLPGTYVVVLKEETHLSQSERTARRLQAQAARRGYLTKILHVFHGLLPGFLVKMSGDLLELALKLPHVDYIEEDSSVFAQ
Put plainly: CircuLex PCSK9-LDLR in vitro binding assay. Conditions: His-tagged PCSK9 wild type, 8 point concentration curves, absorbance 450 nm and 540 nm, read-out: Inhibition of PCSK9-LDLR binding. On the procedure: Compounds were assayed for their ability to inhibit the binding between PCSK9 and the LDL receptor using a CircuLex PCSK9-LDLR in vitro binding assay kit (Catalog #CY-8150. The procedure employed the reagents and buffers included in the kit as follows.
88 μL of 1× reaction buffer were placed into each well. 5 μL of test compounds in 20% DMSO were added into each well. 10 mM solutions of test compounds in DMSO were diluted by 3-fold series to give 8 point concentration curves. The compounds were then diluted 20-fold with the reaction buffer. To each well was then added 7 μL of His-tagged PCSK9 wild type solution (1000 ng/mL) into each well. The plate was then covered with a plate sealer and incubated at room temperature for 3 hours, shaking at 300 rpm on an orbital microplate shaker. The test solutions were washed 4 times with 350 μL wash buffer. 100 μL of biotinylated anti-His-tag monoclonal antibody was added to each well. The plate was covered with a plate sealer, and incubated at room temperature for 1 hour, shaking at 300 rpm. The test solutions were washed 4 times with 350 μL wash buffer. 100 μL of HRP-conjugated streptavidin was added to each well. The plate was covered with a plate sealer, and incubated at room temperature for 20 min, shaking at 300 rpm.
The test solutions were washed 4 times with 350 μL wash buffer. 100 μL of substrate reagent were added into each well. The plate was covered with a plate sealer, and incubated at room temperature for 15 min, shaking at 300 rpm. Finally, 100 μL of the stop solution was added to each well in the same order as the previously added substrate reagent. Absorbance was measured at 450 nm and 540 nm and IC50 curves were plotted.
For the compound `Cc1cn(-c2cc(NC(=O)c3ccc(C)c(Oc4ccccc4)c3)cc(C(F)(F)F)c2)cn1` [Example 13, 4-methyl-N-(3-(4-methyl-1H-imidazol-1-yl)-5-(trifluoromethyl)phenyl)-3-phenoxybenzamide], the IC50 lay in the range of 10 to 100 µM.
Same read-out and setting: for `Cc1cn(-c2cc(/C=C/C(=O)O)cc(NC(=O)c3ccc(C)c(Nc4nccc(-c5ccccc5)n4)c3)c2)cn1` [Example 8, (E)-3-(3-(4-methyl-1H-imidazol-1-yl)-5-(4-methyl-3-((4-phenylpyrimidin-2-yl)amino)benzamido)phenyl)acrylic Acid] the value was 10 to 100 µM.
Still for that read-out and setting: next, `Cc1cn(-c2cc(CN3CCN(C)CC3)cc(NC(=O)c3ccc(C)c(Nc4nccc(-c5ccccc5)n4)c3)c2)cn1` [Example 7, 4-methyl-N-(3-(4-methyl-1H-imidazol-1-yl)-5-((4-methylpiperazin-1-yl)methyl)phenyl)-3-((4-phenylpyrimidin-2-yl)amino)benzamide]: 0.1 to 1 µM; `Cc1cn(-c2cc(CCC(=O)O)cc(NC(=O)c3ccc(C)c(Nc4nccc(-c5ccccc5)n4)c3)c2)cn1` [Example 9, 3-(3-(4-methyl-1H-imidazol-1-yl)-5-(4-methyl-3-((4-phenylpyrimidin-2-yl)amino)benzamido)phenyl)propanoic Acid]: 1 to 10 µM.
On the same count and under the same terms, for `Cc1cn(-c2cc(NC(=O)c3ccc(C)c(Nc4ncccn4)c3)cc(C(F)(F)F)c2)cn1` [Example 4, 4-methyl-N-(3-(4-methyl-1H-imidazol-1-yl)-5-(trifluoromethyl)phenyl)-3-(pyrimidin-2-ylamino)benzamide] the value was 10 to 100 µM.
Consider `CCCCc1cc(NC(=O)c2ccc(C)c(Nc3nccc(-c4ccccc4)n3)c2)cc(-n2cnc(C)c2)c1` [Example 11, N-(3-butyl-5-(4-methyl-1H-imidazol-1-yl)phenyl)-4-methyl-3-((4-phenylpyrimidin-2-yl)amino)benzamide], for which the IC50 was 1 to 10 µM.
On the same count and under the same terms, for `Cc1cc(-c2cc(NC(=O)c3ccc(C)c(Nc4nccc(-c5ccc(F)cc5)n4)c3)cc(N3CCN(C)CC3)c2)on1` [Example 29, 3-((4-(4-fluorophenyl)pyrimidin-2-yl)amino)-4-methyl-N-(3-(3-methylisoxazol-5-yl)-5-(4-methylpiperazin-1-yl)phenyl)benzamide] the value was 10 to 100 µM; for `CC(=O)Nc1ccnc(Nc2cc(C(=O)Nc3cc(-n4cnc(C)c4)cc(C(F)(F)F)c3)ccc2C)n1` [Example 16, 3-((4-acetamidopyrimidin-2-yl)amino)-4-methyl-N-(3-(4-methyl-1H-imidazol-1-yl)-5-(trifluoromethyl)phenyl)benzamide], 10 to 100 µM; for `Cc1cn(-c2cc(NS(=O)(=O)c3ccc(C)c(Nc4nccc(-c5ccccc5)n4)c3)cc(C(F)(F)F)c2)cn1` [Example 15, 4-methyl-N-(3-(4-methyl-1H-imidazol-1-yl)-5-(trifluoromethyl)phenyl)-3-((4-phenylpyrimidin-2-yl)amino)benzenesulfonamide], 10 to 100 µM.
On the same count and under the same terms, for `Cc1cn(-c2cc(N3C(=O)c4cc(C)c(Nc5nccc(-c6cccnc6)n5)cc4C3=O)cc(C(F)(F)F)c2)cn1` [Example 18, 5-methyl-2-(3-(4-methyl-1H-imidazol-1-yl)-5-(trifluoromethyl)phenyl)-6-((4-(pyridin-3-yl)pyrimidin-2-yl)amino)isoindoline-1,3-dione] the value was 1 to 10 µM.
On the same count and under the same terms, next, `Cc1cn(-c2cc(NC(=O)c3ccc(C)c(Nc4nccc(-c5ccncc5)n4)c3)cc(C(F)(F)F)c2)cn1` [Example 2, 4-methyl-N-(3-(4-methyl-1H-imidazol-1-yl)-5-(trifluoromethyl)phenyl)-3-((4-(pyridin-4-yl)pyrimidin-2-yl)amino)benzamide]: 1 to 10 µM.
`Cc1ccc(C(=O)Nc2cc(-n3cnc(C)c3)cc(C(F)(F)F)c2)cc1` [Example 12, 4-methyl-N-(3-(4-methyl-1H-imidazol-1-yl)-5-(trifluoromethyl)phenyl)benzamide]: the IC50 is 10 to 100 µM.
As to `Cc1ccc(C(=O)Nc2cccc(N3CCN(C)CC3)c2)cc1Nc1nccc(-c2ccc(F)cc2)n1` [Example 31, 3-((4-(4-fluorophenyl)pyrimidin-2-yl)amino)-4-methyl-N-(3-(4-methylpiperazin-1-yl)phenyl)benzamide], the IC50 was in the range of 1 to 10 µM.
For `Cc1cn(-c2cc(NC(=O)c3ccc(C)c(Nc4nccc(-c5ccccc5)n4)c3)cc(C(F)(F)F)c2)cn1` [Example 3, 4-methyl-N-(3-(4-methyl-1H-imidazol-1-yl)-5-(trifluoromethyl)phenyl)-3-((4-phenylpyrimidin-2-yl)amino)benzamide], the IC50 was in the range of 1 to 10 µM.
For `Cc1cn(-c2cc(NC(=O)c3ccc(C)c(C(=O)c4cccc(C#N)c4)c3)cc(N3CCN(C)CC3)c2)cn1` [Example 28, 3-(3-cyanobenzoyl)-4-methyl-N-(3-(4-methyl-1H-imidazol-1-yl)-5-(4-methylpiperazin-1-yl)phenyl)benzamide], the IC50 was 1 to 10 µM.
On the same count and under the same terms, next, `Cc1cn(-c2cc(NC(=O)c3ccc(C)c(OCc4ccccc4)c3)cc(C(F)(F)F)c2)cn1` [Example 14, 3-(benzyloxy)-4-methyl-N-(3-(4-methyl-1H-imidazol-1-yl)-5-(trifluoromethyl)phenyl)benzamide]: 10 to 100 µM.
Regarding `Cc1cn(-c2cc(NC(=O)c3ccc(C)c(Nc4nccc(-c5ccc(F)cc5)n4)c3)cc(N3CCOCC3)c2)cn1` [Example 23, 3-((4-(4-fluorophenyl)pyrimidin-2-yl)amino)-4-methyl-N-(3-(4-methyl-1H-imidazol-1-yl)-5-morpholinophenyl)benzamide], the IC50 fell in the range of 10 to 100 µM.
Same read-out and setting: for `Cc1cn(-c2cc(NC(=O)c3ccc(C)c(Nc4nccc(-c5ccccc5)n4)c3)cc(N3CCNCC3)c2)cn1` [Example 5, 4-methyl-N-(3-(4-methyl-1H-imidazol-1-yl)-5-(piperazin-1-yl)phenyl)-3-((4-phenylpyrimidin-2-yl)amino)benzamide] the value was 0.1 to 1 µM.
Same read-out and setting: next, `Cc1cn(-c2cc(NC(=O)c3ccc(C)c(Nc4nccc(-c5ccccc5)n4)c3)cc(N3CCN(C)CC3)c2)cn1` [Example 6, 4-methyl-N-(3-(4-methyl-1H-imidazol-1-yl)-5-(4-methylpiperazin-1-yl)phenyl)-3-((4-phenylpyrimidin-2-yl)amino)benzamide]: 0.1 to 1 µM.
The same measure, in the same setting: for `Cc1cn(-c2cc(CN3CCCC[C@H]3C(=O)O)cc(NC(=O)c3ccc(C)c(Nc4nccc(-c5ccc(F)cc5)n4)c3)c2)cn1` [Example 20, (S)-1-(3-(3-((4-(4-fluorophenyl)pyrimidin-2-yl)amino)-4-methylbenzamido)-5-(4-methyl-1H-imidazol-1-yl)benzyl)piperidine-2-carboxylic Acid] the value was 10 to 100 µM; for `Cc1cn(-c2cc(CN3CCCC[C@H]3C(N)=O)cc(NC(=O)c3ccc(C)c(Nc4nccc(-c5ccc(F)cc5)n4)c3)c2)cn1` [Example 21, (S)-1-(3-(3-((4-(4-fluorophenyl)pyrimidin-2-yl)amino)-4-methylbenzamido)-5-(4-methyl-1H-imidazol-1-yl)benzyl)piperidine-2-carboxamide], 1 to 10 µM.
`Cc1cn(-c2cc(NC(=O)c3ccc(C)c(Nc4nccc(-c5ccccn5)n4)c3)cc(C(F)(F)F)c2)cn1` [Example 1, 4-methyl-N-(3-(4-methyl-1H-imidazol-1-yl)-5-(trifluoromethyl)phenyl)-3-((4-(pyridin-2-yl)pyrimidin-2-yl)amino)benzamide]: the IC50 lay in the range of 10 to 100 µM.

The same test, now with this note: His-tagged PCSK9 wild type; 8 point concentration curves; absorbance 450 nm and 540 nm; IC50 curves.
As to `Cc1cn(-c2cc(NS(=O)(=O)c3ccc(C)c(Nc4nccc(-c5ccc(F)cc5)n4)c3)cc(N3CCN(C)CC3)c2)cn1` [Example 22, 3-((4-(4-fluorophenyl)pyrimidin-2-yl)amino)-4-methyl-N-(3-(4-methyl-1H-imidazol-1-yl)-5-(4-methylpiperazin-1-yl)phenyl)benzenesulfonamide], the “Inhibition of PCSK9-LDLR binding” value is reported as “* (Starred values refer to levels of inhibition of binding by less than 35% at the highest concentration tested, due either to solubility limitations or dynamic range limitations of the assay.)”.
As to `COCCN1CCN(c2cc(NC(=O)c3ccc(C)c(Oc4ccccc4)c3)cc(-n3cnc(C)c3)c2)CC1` [Example 26, N-(3-(4-(2-methoxyethyl)piperazin-1-yl)-5-(4-methyl-1H-imidazol-1-yl)phenyl)-4-methyl-3-phenoxybenzamide], the “Inhibition of PCSK9-LDLR binding” value was “* (Starred values refer to levels of inhibition of binding by less than 35% at the highest concentration tested, due either to solubility limitations or dynamic range limitations of the assay.)”.
On the same count and under the same terms, next, `Cc1cn(-c2cc(NC(=O)c3ccc(C)c(Oc4ccccc4)c3)cc(N3CCN(C)CC3)c2)cn1` [Example 25, 4-methyl-N-(3-(4-methyl-1H-imidazol-1-yl)-5-(4-methylpiperazin-1-yl)phenyl)-3-phenoxybenzamide]: “* (Starred values refer to levels of inhibition of binding by less than 35% at the highest concentration tested, due either to solubility limitations or dynamic range limitations of the assay.)”.

For the origin of these results see patent publication US11897868B2, “Heterocyclic inhibitors of PCSK9” (CARDIO THERAPEUTICS PTY LTD, priority 2017, dated 2024).
